Laboratory results reported in paper PMC6474802 (Journal of natural products, 2018).

What was measured:
Type in all cases: cell-based
TRPM8 = TRPM8 (Homo sapiens, UniProt Q7Z2W7)
TRPV1 = TRPV1 (Homo sapiens, UniProt Q8NER1)
TRPV4 = TRPV4 (Homo sapiens, UniProt Q9HBA0)
Chain of TRPV4 (Q9HBA0 whole entry): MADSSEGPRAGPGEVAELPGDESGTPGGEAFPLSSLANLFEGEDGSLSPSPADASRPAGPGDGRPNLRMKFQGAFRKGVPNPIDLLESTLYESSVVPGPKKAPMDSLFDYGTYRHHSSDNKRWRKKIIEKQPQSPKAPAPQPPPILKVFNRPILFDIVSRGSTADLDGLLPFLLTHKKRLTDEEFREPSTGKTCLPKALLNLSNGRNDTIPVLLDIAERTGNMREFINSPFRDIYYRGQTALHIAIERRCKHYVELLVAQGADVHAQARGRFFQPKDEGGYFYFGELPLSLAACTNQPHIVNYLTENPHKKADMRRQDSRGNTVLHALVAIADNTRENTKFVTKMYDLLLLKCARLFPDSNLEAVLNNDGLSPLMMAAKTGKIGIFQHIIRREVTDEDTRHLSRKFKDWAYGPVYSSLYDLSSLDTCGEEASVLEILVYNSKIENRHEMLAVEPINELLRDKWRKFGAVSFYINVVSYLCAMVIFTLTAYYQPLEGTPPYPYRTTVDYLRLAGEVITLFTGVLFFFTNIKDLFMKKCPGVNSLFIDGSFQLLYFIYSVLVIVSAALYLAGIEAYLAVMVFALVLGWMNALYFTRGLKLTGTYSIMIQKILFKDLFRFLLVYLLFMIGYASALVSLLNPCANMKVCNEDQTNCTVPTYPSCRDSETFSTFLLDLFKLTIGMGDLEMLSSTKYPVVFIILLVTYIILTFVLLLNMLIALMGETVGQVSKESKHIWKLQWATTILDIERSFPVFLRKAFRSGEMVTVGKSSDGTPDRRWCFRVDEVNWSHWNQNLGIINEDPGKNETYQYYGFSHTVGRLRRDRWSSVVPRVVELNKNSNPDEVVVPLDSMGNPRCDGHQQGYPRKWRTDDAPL

Chain of TRPM8 (Q7Z2W7 whole entry): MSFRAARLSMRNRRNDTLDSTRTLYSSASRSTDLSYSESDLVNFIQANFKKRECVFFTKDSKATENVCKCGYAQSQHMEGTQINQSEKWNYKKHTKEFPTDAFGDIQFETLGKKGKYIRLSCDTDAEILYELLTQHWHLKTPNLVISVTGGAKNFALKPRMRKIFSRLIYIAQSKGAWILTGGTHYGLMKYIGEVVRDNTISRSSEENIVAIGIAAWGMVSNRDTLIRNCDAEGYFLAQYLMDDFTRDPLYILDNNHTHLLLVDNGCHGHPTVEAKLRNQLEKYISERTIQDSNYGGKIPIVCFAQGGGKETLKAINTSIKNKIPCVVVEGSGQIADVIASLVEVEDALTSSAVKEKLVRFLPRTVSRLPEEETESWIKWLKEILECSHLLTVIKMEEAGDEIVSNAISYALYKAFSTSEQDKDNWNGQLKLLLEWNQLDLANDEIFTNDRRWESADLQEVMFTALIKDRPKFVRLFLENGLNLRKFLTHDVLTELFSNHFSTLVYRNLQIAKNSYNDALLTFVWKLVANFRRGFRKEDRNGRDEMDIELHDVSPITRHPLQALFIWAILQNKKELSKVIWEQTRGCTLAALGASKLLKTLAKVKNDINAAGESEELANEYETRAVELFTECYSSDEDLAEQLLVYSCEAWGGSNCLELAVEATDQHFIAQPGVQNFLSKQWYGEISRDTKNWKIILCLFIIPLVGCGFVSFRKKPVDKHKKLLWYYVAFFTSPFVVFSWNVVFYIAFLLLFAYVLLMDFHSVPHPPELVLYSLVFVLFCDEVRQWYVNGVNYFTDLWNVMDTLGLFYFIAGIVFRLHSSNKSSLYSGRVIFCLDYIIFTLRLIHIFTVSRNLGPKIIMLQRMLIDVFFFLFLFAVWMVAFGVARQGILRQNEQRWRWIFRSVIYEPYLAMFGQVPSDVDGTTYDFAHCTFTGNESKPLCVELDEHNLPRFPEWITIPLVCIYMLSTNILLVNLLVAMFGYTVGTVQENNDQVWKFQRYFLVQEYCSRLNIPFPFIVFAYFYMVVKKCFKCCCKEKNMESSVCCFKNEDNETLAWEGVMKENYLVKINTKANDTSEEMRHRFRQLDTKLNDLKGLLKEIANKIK
Chain of TRPV1 (Q8NER1 whole entry): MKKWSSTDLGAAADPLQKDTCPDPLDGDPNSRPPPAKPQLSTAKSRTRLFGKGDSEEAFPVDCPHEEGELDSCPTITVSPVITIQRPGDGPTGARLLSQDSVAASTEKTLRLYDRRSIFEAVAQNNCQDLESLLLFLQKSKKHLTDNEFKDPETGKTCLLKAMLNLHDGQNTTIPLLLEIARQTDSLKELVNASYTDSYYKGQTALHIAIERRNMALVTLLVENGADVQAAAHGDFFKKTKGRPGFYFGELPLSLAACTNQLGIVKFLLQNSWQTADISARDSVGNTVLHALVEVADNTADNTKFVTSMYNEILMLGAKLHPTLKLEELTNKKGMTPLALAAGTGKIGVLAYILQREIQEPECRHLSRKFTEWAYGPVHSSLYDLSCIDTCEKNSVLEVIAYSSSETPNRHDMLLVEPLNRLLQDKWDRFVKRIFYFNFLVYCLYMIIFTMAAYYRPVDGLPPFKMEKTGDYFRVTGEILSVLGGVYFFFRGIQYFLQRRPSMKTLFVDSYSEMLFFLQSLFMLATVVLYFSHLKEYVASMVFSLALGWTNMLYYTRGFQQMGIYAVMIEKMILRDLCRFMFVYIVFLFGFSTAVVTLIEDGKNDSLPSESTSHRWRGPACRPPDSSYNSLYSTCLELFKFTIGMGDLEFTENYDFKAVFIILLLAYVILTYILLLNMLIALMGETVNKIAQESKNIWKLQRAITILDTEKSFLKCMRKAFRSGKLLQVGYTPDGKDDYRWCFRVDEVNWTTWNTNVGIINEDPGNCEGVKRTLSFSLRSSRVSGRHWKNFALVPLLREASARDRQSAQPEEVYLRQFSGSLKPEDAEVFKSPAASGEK

Row | Substance | IC50 (TRPM8) [µM] | IC50 (TRPV1) [µM] | IC50 (TRPV4) [µM]
1 | Onydecalin B [compound 2] | 18.5 | – | –
2 | Onydecalin D [compound 4] | 61.6 | – | –
3 | onydecalin A [compound 1] | – | ~81.6 | ~45.9
